The text below walks through data of US6432883B1, “Methods of treating plants with glycolic acid” (Emerald BioAgriculture Corporation, priority 2000, dated 2002).

For assay [1], the system named is cabbage. As to the kind of experiment: Cabbage plant growth stimulation: fresh and dry weights. Conditions: 5, 15 or 50 ppm spray, FIGS. 1 and 2. In kind it is in vivo. On the procedure: Market Prize, F1 cabbage seed, lot 88955, was purchased from Harris Seeds, Inc. (Rochester, N.Y.) and grown 2 plants per 4″×4″×4″ pot, 1 pot per experimental unit and 6 experimental units per each of 4 replications. The plants were spray-treated first at 2 true leaves and again 7 days later with 8 ml solution per pot.
The treatments included a non-treated control (NTC), 0.05% Breakthru® (a silicone-based surfactant obtained from Goldschmidt Chemical, Hopewell, Va.) control, and 5, 15 or 50 ppm of either Glypure® (F12; 99% high purity crystalline glycolic acid), or ammonia-neutralized Glypure® [F18; a 50% (w/v) solution made by neutralizing 70% high purity glycolic acid from DuPont with ammonium hydroxide to a pH of 4.4. Growth stimulation was assessed by measuring both the fresh and dry weights of the plants.

Assay [2] has as its system cabbage. As to the kind of experiment: Cabbage drought stress: fresh and dry weights. Format: in vivo. On the procedure: Market Prize, F1 cabbage seed, lot 88955, as described in example 7, was treated identically as in example 7, except that drought stress was imposed by withholding water 7 days following the second spray and continuing to withhold water for 13 sequential days thereafter. Drought tolerance was assessed by measuring both the fresh and dried weights of the plants.

For a further assay, the system named is Sclerotinia minor. As to the kind of experiment: Colony radius of plant pathogen on amended potato dextrose agar. Format: cell-based. Conditions: in PDA, 4 days, about 23° C., FIG. 5. The text has this:
Sclerotinia minor culture SaM-18 was received from Krishna Subbarro, Ph.D., Univ. Calif., Davis. Potato dextrose agar (PDA) powder was purchased from Baltimore Biological Laboratory, Inc. (BBL), ammonium glycolate and glycolic acid from DuPont Specialty Chemicals and BreakThru® surfactant from Goldschmidt Chemical Corp.
PDA was made, poured into sterile disposable petri dishes (100×15 mm) and inoculated with S. minor sclerotia to start new cultures on day zero. These cultures had reached an appropriate stage of maturation for use for use in the test after two weeks of growth. Multiple 1 liter containers of PDA were made and autoclaved on day 14. These PDA containers remained in the circulating water bath at 46° C. until the solutions were ready for addition (about 2 hrs.). The glycolic acid-containing compositions were added to the 46° C. PDA through a syringe-tip 0.2 μm-pore sterile filtration disc in a positive laminar-flow sterile hood and thoroughly mixed before returning to the 46° C. water bath to await pouring. Stacks of 22 dishes were poured for each medium type and allowed to solidify and cool overnight.
On day 15, soft, white to gray, sclerotial clumps of hyphae were picked from the culture dishes with heat sterilized forceps and one clump was transferred to the center of each test medium dish. Twenty dishes of each inoculated medium were stacked and replaced into the plastic sleeves they were originally packaged in for incubation at room temperature (about 23° C.). After 4 days of growth, some of the cultures had just reached the edges of the medium. The radius of each colony was measure in mm.
Treatments were water controls, 0.05% surfactant controls, 5, 15, 50, 75 and 100 ppm of glycolic acid (F12) and 5, 15, 50, 100 and 750 ppm of ammonia-neutralized glycolic acid (F18; i.e., ammonium glycolate).

`N.O=C(O)CO` [F18, ammonium glycolate]: in the assay with cabbage [1], the “plant growth (fresh and dry weights) compared to the controls” value is “statistically significantly stimulated plant growth”; the “plant growth compared to equivalent amounts of F12” value was “stimulated plant growth to a greater extent”. Also, the “resistance to the effects of drought stress compared to equivalent amounts of F12” value in the assay with cabbage [2] (5, 15 and 50 ppm, plant weight) is reported as “statistically significantly greater effect”. For the same compound, the “fresh weight of the cabbage compared to controls” value with cabbage [2] (drought, water withheld 13 days, 5, 15, 50 ppm, FIG. 3) is “statistically significantly increased”. Also, the “dry weight of the cabbage compared to controls” value in the assay on cabbage [2] (drought, water withheld 13 days, 5, 15, 50 ppm, FIG. 4) is given as “statistically significantly increased”. In addition, in the assay on Sclerotinia minor, the “Sclerotinia growth compared to equivalent amounts of glycolic acid” value is on record as “significantly more” and the “growth of Sclerotinia minor (colony radius) compared to controls” value is given as “statistically significantly increased the growth”.
